In patent publication US8198273B2, “Compounds and methods for kinase modulation, and indications therefor” (Plexxikon Inc., priority 2009, dated 2012):

Key:
[1] = tested on: A375 melanoma cells (B-Raf V600E); test: A375 cell growth inhibition (ATPlite); format: cell-based; settings: Homo sapiens, A-375, 72 h; A375, 3 days incubation
Procedure, shortened: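 ATPlite luminescence, taken as a cell-number measure, gave IC50 values after a 3-day 37° C, 5% CO2 incubation. Compounds were tested as 8-point threefold titrations, highest final concentration 10 μM, added to cells seeded the day before.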

[2] = target: CYP2D6 (Homo sapiens, UniProt P10635); test: CYP2D6 inhibition (fluorescent substrate); format: in vitro ADME; settings: CYP2D6, AMMC substrate; read-out: Cyp IC50 2D6
Procedure, shortened: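 First, 100 mM DMSO stocks are diluted into acetonitrile, then twofold through co-factor mix for 10 points. Next, mixtures are preincubated 10 min at 37 °C.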

[3] = Relative solubility by turbidity in aqueous buffers of varying pH; format: physicochemical; settings: for turbidity threshold (L, M, H) 7.4: HEPES pH 7.4; for turbidity threshold (L, M, H) 4.5: SIF pH 4.5; for turbidity threshold (L, M, H) 6.8: SIF pH 6.8; for turbidity threshold (L, M, H) 1.4: buffer pH 1.4 (SGF)
Procedure, shortened: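 Turbidity endpoint: concentration where optical density at 490, 535 and 650 nm exceeds 0.01, three-wavelength average used. Buffers at pH 1.5, 4.5, 6.8 and 7.4; DMSO serial dilutions of 25 mM stock spiked 1 μL into 99 μL buffer. Low <31.3, moderate 31.3–250, high >250 μM.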

CYP2D6, sequence (P10635 whole entry): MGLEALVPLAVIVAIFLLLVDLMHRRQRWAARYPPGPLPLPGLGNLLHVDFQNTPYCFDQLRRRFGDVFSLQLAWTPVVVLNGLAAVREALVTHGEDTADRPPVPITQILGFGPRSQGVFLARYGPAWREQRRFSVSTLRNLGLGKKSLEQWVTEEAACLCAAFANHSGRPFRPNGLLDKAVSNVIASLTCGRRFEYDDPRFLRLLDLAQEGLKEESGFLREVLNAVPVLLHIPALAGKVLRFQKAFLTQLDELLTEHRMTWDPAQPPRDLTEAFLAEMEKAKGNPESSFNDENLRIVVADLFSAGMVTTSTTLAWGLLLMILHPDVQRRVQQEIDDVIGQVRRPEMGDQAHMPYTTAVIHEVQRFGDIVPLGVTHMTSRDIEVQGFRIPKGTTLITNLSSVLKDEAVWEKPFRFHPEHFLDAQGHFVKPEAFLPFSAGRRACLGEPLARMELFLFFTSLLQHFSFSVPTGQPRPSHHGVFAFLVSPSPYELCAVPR

| IC50 [1] [µM] | IC50 [2] [µM] | Structure (SMILES) | turbidity threshold (L, M, H) 7.4 [3] | turbidity threshold (L, M, H) 4.5 [3] | turbidity threshold (L, M, H) 6.8 [3] | turbidity threshold (L, M, H) 1.4 [3] |
| --- | --- | --- | --- | --- | --- | --- |
| < 1 | > 10 | CCCS(=O)(=O)Nc1ccc(F)c(C(=O)c2c[nH]c3ncc(-c4cnc(SC)nc4)cc23)c1F [P-2189, Propane-1-sulfonic acid {2,4-difluoro-3-[5-(2-methylsulfanyl-pyrimidin-5-yl)-1H-pyrrolo[2,3-b]pyridine-3-carbonyl]-phenyl}-amide] | L (low solubility if the threshold concentration is <31.3 04) | L (low solubility if the threshold concentration is <31.3 04) | L (low solubility if the threshold concentration is <31.3 04) | L (low solubility if the threshold concentration is <31.3 04) |
| < 1 | > 10 | CCCS(=O)(=O)Nc1ccc(F)c(C(=O)c2c[nH]c3ncc(-c4cnn(CCN5CCOCC5)c4)cc23)c1F [P-2177, Propane-1-sulfonic acid (2,4-difluoro-3-{5-[1-(2-morpholin-4-yl-ethyl)-1H-pyrazol-4-yl]-1H-pyrrolo[2,3-b]pyridine-3-carbonyl}-phenyl)-amide] | L (low solubility if the threshold concentration is <31.3 04) | M (moderate solubility if the threshold concentration is 31.3 μM to 250 μM) | L (low solubility if the threshold concentration is <31.3 04) | H (high solubility if the threshold concentration is >250 μM) |
